From publication PMC7162492, “Pharmacological and pharmacokinetic profile of the novel ocular hypotensive prodrug CKLP1 in Dutch-belted pigmented rabbits” (PLoS ONE, 2020)
“And” between values parts separate entries of the source, which are not always exact repeats. Equal values may be shown once. Read-outs that look alike come from different tables or passages of the source. Each block holds one molecule with its values, some of them ahead of it.

How the values were obtained:
[1] = Concentration in aqueous and vitreous humor after topical CKLP1 for 1, 4 or 8 days (LC-MS/MS); assay type: in vivo, Dutch-belted pigmented rabbits; settings: topical CKLP1 both eyes, days 1, 4 and 8, collected after the 24 h blood sample; for concentration at 24 h: female, Dutch-belted pigmented, rabbit
Method: (§1) LC-MS/MS analysis of all fluids were performed using a Waters (Milford, MA) Acquity UPLC BEH C18 column (1.7 μm, 2.1 x 50 mm) with an Agilent EC-C18 pre-column (2.7 μm, 2.1 x 5 mm) and a gradient elution program containing ultra-pure water and acetonitrile with 2.5 mM ammonium formate, at a flow rate of 0.2 ml/min. Flavopiridol was used as an internal standard. The column and auto-sampler temperatures were maintained at 40°C and 4°C, respectively. Source parameters were capillary voltage, 2.6 kV; source temperature, 150°C; desolvation temperature, 500°C; cone gas flow, 150 L/h; and desolvation gas flow, 800 L/h. The cone voltages and collision energies for CKLP1, levcromakalim and flavopiridol were determined by MassLynx-Intellistart software, v4.1, and were 32, 34 and 72 V (cone) and 20, 14 and 30 eV (collision), respectively. The retention times were 4.5 minutes for CKLP1, 5.9 minutes for levcromakalim and 5.7 minutes for flavopiridol.
(§2) To validate accurate measurement of CKLP1 and levcromakalim, known concentrations of CKLP1 (5, 10, 25, 50, 100, 250, 500 ng/ml) and levcromakalim (1, 5, 10, 25, 50, 100, 250 ng/ml) were added to human plasma (obtained from the Mayo Clinic Division of Transfusion Medicine under an Institutional Review Board approved protocol) to make calibration curves. Quality control was determined for each run by using known quantities of CKLP1 and levcromakalim to verify that the instrument recorded values consistent with the established standard curve. The effect of carryover was evaluated by injecting blank samples before and after running the standard samples for calibration curves. Unknown samples with signal to noise ratios >10 were recorded as acceptable concentrations. Samples with signal to noise ratios <10 were reported as not detectable (ND). Controls consisted of a double blank (without analytes and internal standard) and a single blank (only internal standard). The linearity of the calibration curves was determined by plotting the ratios of analytes to internal standard peak areas. The curve was fitted by least squares regression with a 1/x weighting for both CKLP1 and levcromakalim. Data was collected from 3–6.4 minutes for CKLP1 and 4–8 minutes for both levcromakalim and flavopiridol. Waters MassLynx Intellistart software v4.1 was used for analysis.
(§3) All experiments with animals were pre-approved by the Institutional Animal Care and Use Committee of the Mayo Clinic, Rochester, MN and adhered to the recommendations in the Guide for the Care and use of Laboratory Animals of the National Institutes of Health, and the tenets of the ARVO Statement for the Use of Animals in Vision Research. Female Dutch-belted pigmented rabbits (age 7 months) were obtained from Covance Research Products, Inc. (Denver, PA). Rabbits were housed in pairs and kept in a climate controlled room with 12 h light and dark cycles. Animals had unrestrained access to water and standard rabbit food pellets at all times. Upon receipt, animals were acclimated for at least 5 days before initiation of the experiment. IOP was measured with a handheld rebound tonometer (Icare Tonovet, Colonial Medical Supply, Franconia, NH, USA) in conscious and minimally restrained, non-anesthetized rabbits as previously described. Briefly, daily IOP was calculated from the average of 3 independent IOP measurements at 3 different time points each day. These time points corresponded to 1 h, 4 h and 23 h post treatment on any given day. Rabbits that needed to be handled for IOP were subjected to sham IOP measurements for two days prior to initiation of experiment. Rabbits (n = 3) were injected intravenously through the right ear vein with CKLP1 as a bolus dose equal to 0.25 mg/kg body weight. Additional rabbits were treated topically through instillation of 50 μl eye drops of a 10 mM (4.1 mg/ml) solution of CKLP1 in sterile PBS. […]

[2] = Tissue and fluid distribution after 90 days of daily topical CKLP1 (LC-MS/MS); assay type: in vivo, Dutch-belted pigmented rabbits; settings: topical eye drops 10 mM CKLP1, 90 consecutive days
Method: as §1, §2, §3

[3] = Plasma pharmacokinetics after single intravenous injection of CKLP1 (LC-MS/MS); assay type: in vivo, Dutch-belted pigmented rabbits
Method: as §1, §2, §3

[4] = Plasma pharmacokinetics after topical eye drops of CKLP1, days 1, 4 and 8 (LC-MS/MS); assay type: in vivo, Dutch-belted pigmented rabbits; settings: for AUC(0-t) / Cmax / half-life / Tmax: female, Dutch-belted pigmented, rabbit, topical or ocular; for AUC(0-t) / Cmax / half-life / Tmax / Clast / Tlast: plasma; for Cmax: read-out: Cmax; for half-life: read-out: Half-life (converted); for Tmax: read-out: Tmax (converted)
Method: as §1, §2, §3

[5] = design: method as in earlier work; settings: ref Roy Chowdhury U, Viker KB, Stoltz KL, et al. J Med Chem. 2016;59(13):6221-31; cited from earlier work
[6] = rabbit, intravenous 0.25 mg/kg CKLP1
[7] = eye drops 10 mM CKLP1 both eyes once daily, Day 4
[8] = eye drops 10 mM CKLP1 both eyes once daily, Day 8
[9] = eye drops 10 mM CKLP1 both eyes, Day 1

- concentration at 24 h ([1]; aqueous humor, read-out: Concentration in aqueous humor): < 0.3 ng/mL
- concentration at 24 h ([1]; vitreous humor, read-out: Concentration in vitreous humor): < 0.3 ng/mL
- Concentration in aqueous humor [1]: low levels
- Concentration in vitreous humor [1]: low levels
- Concentration in Brain [2]: not detected
- Concentration in Heart [2]: not detected
- Concentration in Liver [2]: 5.9 ± 4.3 (n = 4/6) ng/g
- Concentration in Muscle [2]: not detected
- Concentration in Plasma [2]: no detectable levels
- Concentration in aqueous humor [2]: 0.2 ± 0.1 (n = 4/6) ng/ml
- Concentration in vitreous humor [2]: 0.1 ± 0.0 (n = 3/6) ng/ml
- Concentration in Liver ([2]; listed as levcromakalim): 5.9 ± 4.3 ng/g
- Concentration in aqueous humor ([2]; listed as levcromakalim): 0.2 ± 0.1 ng/mL
- Concentration in vitreous humor ([2]; listed as levcromakalim): 0.1 ± 0.0 ng/mL
- AUC(0-t) ([3]; female, Dutch-belted pigmented, rabbit, intravenous 0.25 mg/kg CKLP1): 120 ± 93.7 ng·h/mL
- Cmax ([3]; female, Dutch-belted pigmented, rabbit, intravenous 0.25 mg/kg CKLP1, read-out: Cmax): 10.6 ± 1.2 ng/mL
- half-life ([3]; female, Dutch-belted pigmented, rabbit, intravenous 0.25 mg/kg CKLP1, read-out: Half-life): 1.42 ± 0.617 h
- Tmax ([3]; female, Dutch-belted pigmented, rabbit, intravenous 0.25 mg/kg CKLP1, read-out: Tmax (converted)): 1.02 h
- Peak concentration (Cmax) of levcromakalim relative to CKLP1 ([3]; intravenous CKLP1, fold less than CKLP1): ~200 fold
- Clast [3, 6]: 4.4 ± 4.3 ng/mL
- Tlast [3, 6]: 16.0 ± 8.9 h
- AUC(0-t) [4, 7]: 10.9 ± 6 ng·h/mL
- Cmax [4, 7]: 0.9 ± 0.7 ng/mL
- half-life [4, 7]: 25.8 ± 13.7 h
- Tmax [4, 7]: 3.33 h
- AUC(0-t) [4, 8]: 10.2 ± 0.3 ng·h/mL
- Cmax [4, 8]: 0.6 ± 0.3 ng/mL
- half-life [4, 8]: 12.2 ± 5.6 h
- Tmax [4, 8]: 2.33 h
- AUC(0-t) [4, 9]: 6.1 ± 2 ng·h/mL
- Cmax [4, 9]: 0.4 ± 0.1 ng/mL
- half-life [4, 9]: 13.2 ± 2.6 h
- Tmax [4, 9]: 6.67 h
- Clast [4, 7]: 0.3 ± 0.1 ng/mL
- Tlast [4, 7]: 24.0 ± 0.0 h
- Clast [4, 8]: 0.2 ± 0.1 ng/mL
- Tlast [4, 8]: 18.7 ± 9.2 h
- Clast [4, 9]: 0.1 ± 0.1 ng/mL
- Tlast [4, 9]: 24.0 ± 0.0 h
- Amount in plasma after topical CKLP1 ([4]; topical 10 mM CKLP1 in the eye): trace amounts
SMILES: CC1(C)Oc2ccc(C#N)cc2[C@@H](N2CCCC2=O)[C@@H]1O [Levcromakalim, levcromakalim, reference compound]
- Concentration in Lung [2]: 1.5 ± 0.0 ng/g and 1.5 ± 0.0 (n = 6/6) ng/g

SMILES: CC1(C)Oc2ccc(C#N)cc2C(N2CCCC2=O)C1O (stereo not drawn) [Cromakalim, cromakalim, reference compound]
- Solubility in water [5]: insoluble in water
